Key:
[1] = target: KDR (phospho-KDR, VEGF165-stimulated HUVEC cells) (Homo sapiens (Human), UniProt P35968); experiment: KDR autophosphorylation ELISA in HUVEC cells (Example G); format: cell-based; conditions: cellular activity; KDR autophosphorylation ELISA in HUVEC cells
Summary of the method: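 HUVECs were serum-starved 24 h, given compound as an 8-point dilution series (0.3% DMSO final) for 1 h, then stimulated with 100 ng/mL VEGF165 for 5 min. Lysate phospho-KDR was quantified by sandwich ELISA against a phospho-KDR standard, and IC50s came from a 4-parameter logistic fit.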

[2] = target: Human KDR (residues 790-1356) (Homo sapiens (Human), UniProt P35968); experiment: Human KDR kinase assay, HTRF KinEase (Example B-2); format: biochemical; conditions: protocol of Example B-2 (other compounds)
Summary of the method: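 Human KDR residues 790-1356 (0.1 ng/well) in buffer with 5 mM MgCl2, 1 mM MnCl2, 1 mM DTT, biotinylated peptide substrate, ATP at Km (4.0 μM), 3% DMSO, 10 compound concentrations; 40 min, room temperature. EDTA stop, streptavidin-XL665/Eu-TK antibody HTRF read 665/620 nm; 4-parameter IC50.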

[3] = target: Human MER (residues 528-999) (Homo sapiens (Human), UniProt Q12866); experiment: Human Mer kinase assay, HTRF KinEase (Example C-2); format: biochemical; conditions: protocol of Example C-2 (other compounds)
Summary of the method: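 IC50 values from 10 concentrations via 4-parameter logistic fit of […], with DMSO as 100% and 1 μM reference compound as 0% activity. Reaction: MER kinase domain 528-999, 1 ng/well, 40 μM ATP (Km), biotin peptide, 5 mM MgCl2, 1 mM DTT, 3% DMSO, room temperature 60 min; HTRF streptavidin-XL665/Eu-antibody detection.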

Sequence of Human KDR (residues 790-1356) (P35968 790-1356): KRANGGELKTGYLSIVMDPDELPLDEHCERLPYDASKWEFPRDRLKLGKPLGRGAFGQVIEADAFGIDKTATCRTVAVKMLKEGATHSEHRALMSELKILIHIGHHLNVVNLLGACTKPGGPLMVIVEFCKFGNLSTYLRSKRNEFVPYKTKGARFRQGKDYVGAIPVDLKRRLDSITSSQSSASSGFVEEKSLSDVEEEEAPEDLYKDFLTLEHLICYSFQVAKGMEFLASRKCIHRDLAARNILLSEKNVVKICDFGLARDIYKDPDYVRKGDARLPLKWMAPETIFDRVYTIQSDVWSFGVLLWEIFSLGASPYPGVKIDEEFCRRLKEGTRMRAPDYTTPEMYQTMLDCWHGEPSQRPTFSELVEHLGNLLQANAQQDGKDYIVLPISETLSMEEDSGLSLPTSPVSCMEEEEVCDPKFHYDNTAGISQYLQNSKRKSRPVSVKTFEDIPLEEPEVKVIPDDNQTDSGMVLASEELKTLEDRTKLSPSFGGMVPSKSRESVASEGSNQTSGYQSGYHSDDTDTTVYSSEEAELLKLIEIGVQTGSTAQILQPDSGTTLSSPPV
Sequence of Human MER (residues 528-999) (Q12866 528-999): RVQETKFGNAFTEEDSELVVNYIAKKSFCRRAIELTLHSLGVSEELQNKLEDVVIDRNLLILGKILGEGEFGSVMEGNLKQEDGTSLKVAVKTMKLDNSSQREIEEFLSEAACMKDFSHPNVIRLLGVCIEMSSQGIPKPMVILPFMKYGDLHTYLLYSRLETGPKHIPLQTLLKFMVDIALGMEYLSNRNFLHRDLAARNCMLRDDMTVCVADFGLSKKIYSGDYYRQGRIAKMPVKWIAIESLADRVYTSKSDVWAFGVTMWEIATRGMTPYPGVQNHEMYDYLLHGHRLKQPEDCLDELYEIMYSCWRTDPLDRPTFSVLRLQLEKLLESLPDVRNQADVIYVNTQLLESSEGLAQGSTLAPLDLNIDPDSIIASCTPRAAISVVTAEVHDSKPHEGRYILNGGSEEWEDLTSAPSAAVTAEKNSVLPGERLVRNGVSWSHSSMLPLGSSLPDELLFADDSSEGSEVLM
Sequence of KDR (phospho-KDR, VEGF165-stimulated HUVEC cells) (P35968 20-1356): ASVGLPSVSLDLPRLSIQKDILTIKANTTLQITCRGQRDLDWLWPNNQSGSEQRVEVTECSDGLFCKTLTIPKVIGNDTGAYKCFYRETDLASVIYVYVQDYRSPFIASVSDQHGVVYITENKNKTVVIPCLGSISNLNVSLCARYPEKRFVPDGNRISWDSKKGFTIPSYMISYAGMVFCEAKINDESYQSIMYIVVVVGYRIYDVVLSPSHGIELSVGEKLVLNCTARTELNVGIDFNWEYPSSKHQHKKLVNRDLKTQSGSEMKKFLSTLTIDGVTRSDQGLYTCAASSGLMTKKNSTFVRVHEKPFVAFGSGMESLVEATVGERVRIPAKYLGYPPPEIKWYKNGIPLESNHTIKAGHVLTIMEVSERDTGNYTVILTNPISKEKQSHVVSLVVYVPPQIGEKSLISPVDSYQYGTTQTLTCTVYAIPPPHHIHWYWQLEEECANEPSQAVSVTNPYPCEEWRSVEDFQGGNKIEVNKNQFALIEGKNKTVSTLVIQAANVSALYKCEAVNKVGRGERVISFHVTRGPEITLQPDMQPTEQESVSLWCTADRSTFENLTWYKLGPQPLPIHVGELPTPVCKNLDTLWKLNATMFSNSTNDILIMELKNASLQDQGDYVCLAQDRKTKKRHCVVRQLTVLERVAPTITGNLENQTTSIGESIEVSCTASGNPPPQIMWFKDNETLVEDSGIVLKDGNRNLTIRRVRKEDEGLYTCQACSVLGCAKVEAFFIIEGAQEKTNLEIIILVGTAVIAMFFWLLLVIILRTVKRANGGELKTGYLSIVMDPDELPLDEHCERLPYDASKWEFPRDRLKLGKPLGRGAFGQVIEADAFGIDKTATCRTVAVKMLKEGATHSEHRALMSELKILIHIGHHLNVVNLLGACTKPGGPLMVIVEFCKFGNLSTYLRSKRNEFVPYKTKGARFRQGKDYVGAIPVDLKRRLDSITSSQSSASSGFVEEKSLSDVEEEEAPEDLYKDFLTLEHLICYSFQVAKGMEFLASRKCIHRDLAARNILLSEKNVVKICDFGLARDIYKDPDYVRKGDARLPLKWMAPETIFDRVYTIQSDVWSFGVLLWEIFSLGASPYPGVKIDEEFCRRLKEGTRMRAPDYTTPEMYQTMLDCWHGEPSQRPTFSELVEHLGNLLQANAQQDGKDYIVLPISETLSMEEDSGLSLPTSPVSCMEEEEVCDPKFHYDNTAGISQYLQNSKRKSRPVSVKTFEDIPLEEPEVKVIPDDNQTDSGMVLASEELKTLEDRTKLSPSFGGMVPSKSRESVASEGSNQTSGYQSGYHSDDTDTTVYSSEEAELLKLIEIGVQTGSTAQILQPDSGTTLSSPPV

Row | SMILES | IC50 [1] | IC50 [2] | IC50 [3]
1 | COc1cc2nccc(Oc3ccc(NC(=O)c4ccc(C)n(-c5ccc(F)cc5C)c4=O)cc3)c2nc1OC [Compound 225, N-[4-[(6,7-Dimethoxy-1,5-naphthyridin-4-yl)oxy]phenyl]-1-(4-fluoro-2-methylphenyl)-6-methyl-2-oxopyridine-3-carboxamide] | < 100 nM | < 100 nM | < 100 nM
2 | COCCOc1nc2c(Oc3ccc(NC(=O)c4ccc(C)n(-c5ccc(F)cc5)c4=O)cc3F)ccnc2cc1OC [Compound 227, N-[3-Fluoro-4-[[7-methoxy-6-(2-methoxyethoxy)-1,5-naphthyridin-4-yl]oxy]phenyl]-1-(4-fluorophenyl)-6-methyl-2-oxopyridine-3-carboxamide] | < 100 nM | < 100 nM | < 100 nM
3 | COc1cc2nccc(Oc3ccc(NC(=O)c4ccc(C)n(-c5ccc(F)cc5)c4=O)cc3)c2nc1OC [Compound 229, N-[4-[(6,7-Dimethoxy-1,5-naphthyridin-4-yl)oxy]phenyl]-1-(4-fluorophenyl)-6-methyl-2-oxopyridine-3-carboxamide] | < 100 nM | < 100 nM | < 100 nM
4 | COc1ccc2nccc(Oc3ccc(NC(=O)c4n[nH]c(C)c(-c5ccc(F)cc5C)c4=O)cc3F)c2n1 [Compound 230, N-[3-Fluoro-4-[(6-methoxy-1,5-naphthyridin-4-yl)oxy]phenyl]-5-(4-fluoro-2-methylphenyl)-6-methyl-4-oxo-1H-pyridazine-3-carboxamide] | 100 to 300 nM | > 300 nM | < 100 nM
5 | COc1ccc2nccc(Oc3ccc(NC(=O)c4cnc(CO)c(-c5ccc(F)cc5)c4O)cc3F)c2n1 [Compound 231, N-[3-Fluoro-4-[(6-methoxy-1,5-naphthyridin-4-yl)oxy]phenyl]-5-(4-fluorophenyl)-4-hydroxy-6-(hydroxymethyl)pyridine-3-carboxamide] | < 100 nM | 100 to 300 nM | < 100 nM
6 | COc1ccc2nccc(Oc3ccc(NC(=O)c4cnc(C)n(-c5ccc(F)cc5)c4=O)cc3F)c2n1 [Compound 232, N-[3-Fluoro-4-[(6-methoxy-1,5-naphthyridin-4-yl)oxy]phenyl]-1-(4-fluorophenyl)-2-methyl-6-oxopyrimidine-5-carboxamide] | 100 to 300 nM | > 300 nM | < 100 nM
7 | COc1ccc2nccc(Oc3ccc(NC(=O)c4c(C)nc(C)n(-c5ccc(F)cc5)c4=O)cc3F)c2n1 [Compound 233, N-[3-Fluoro-4-[(6-methoxy-1,5-naphthyridin-4-yl)oxy]phenyl]-1-(4-fluorophenyl)-2,4-dimethyl-6-oxopyrimidine-5-carboxamide] | < 100 nM | < 100 nM | < 100 nM
8 | COc1ccc2nccc(Oc3ccc(NC(=O)c4c(C)ncn(-c5ccc(F)cc5)c4=O)cc3F)c2n1 [Compound 234, N-[3-Fluoro-4-[(6-methoxy-1,5-naphthyridin-4-yl)oxy]phenyl]-1-(4-fluorophenyl)-4-methyl-6-oxopyrimidine-5-carboxamide] | 100 to 300 nM | > 300 nM | < 100 nM
9 | COc1cc2nccc(Oc3ccc(NC(=O)c4c(C)ncc(-c5ccc(F)cc5)c4O)cc3)c2nc1OC [Compound 235, N-[4-[(6,7-Dimethoxy-1,5-naphthyridin-4-yl)oxy]phenyl]-5-(4-fluorophenyl)-4-hydroxy-2-methylpyridine-3-carboxamide] | < 100 nM | < 100 nM | < 100 nM
10 | COc1cc2nccc(Oc3ccc(NC(=O)c4c(C)ncc(-c5ccc(F)cc5)c4O)cc3F)c2nc1OC [Compound 237, N-[4-[(6,7-Dimethoxy-1,5-naphthyridin-4-yl)oxy]-3-fluorophenyl]-5-(4-fluorophenyl)-4-hydroxy-2-methylpyridine-3-carboxamide] | < 100 nM | < 100 nM | < 100 nM
11 | COc1cnc2c(Oc3ccc(NC(=O)c4cnc(C(F)(F)F)c(-c5ccc(F)cc5)c4O)cc3F)ccnc2c1 [Compound 241, N-[3-Fluoro-4-[(7-methoxy-1,5-naphthyridin-4-yl)oxy]phenyl]-5-(4-fluorophenyl)-4-hydroxy-6-(trifluoromethyl)pyridine-3-carboxamide] | > 300 nM | > 300 nM | < 100 nM
12 | COc1ccc2nccc(Oc3ccc(NC(=O)c4c(C)ncc(-c5ccc(F)cc5)c4O)cc3F)c2n1 [Compound 242, N-[3-Fluoro-4-[(6-methoxy-1,5-naphthyridin-4-yl)oxy]phenyl]-5-(4-fluorophenyl)-4-hydroxy-2-methylpyridine-3-carboxamide] | < 100 nM | < 100 nM | < 100 nM
13 | COc1ccc2nccc(Oc3ccc(NC(=O)c4c(C)n(C)cc(-c5ccc(F)cc5)c4=O)cc3F)c2n1 [Compound 243, N-[3-Fluoro-4-[(6-methoxy-1,5-naphthyridin-4-yl)oxy]phenyl]-5-(4-fluorophenyl)-1,2-dimethyl-4-oxopyridine-3-carboxamide] | > 300 nM | > 300 nM | < 100 nM

Now from value to compound:

Row | IC50 [1] | IC50 [2] | IC50 [3] | SMILES
14 | 100 to 300 nM | 100 to 300 nM | < 100 nM | COc1cc2nccc(Oc3ccc(NC(=O)c4cn(C)c(CO)c(-c5ccc(F)cc5)c4=O)cc3)c2nc1OC [Compound 221, N-[4-[(6,7-Dimethoxy-1,5-naphthyridin-4-yl)oxy]phenyl]-5-(4-fluorophenyl)-6-(hydroxymethyl)-1-methyl-4-oxopyridine-3-carboxamide]
15 | > 300 nM | > 300 nM | < 100 nM | COc1cnc2c(Oc3ccc(NC(=O)c4cn(C)c(CO)c(-c5ccc(F)cc5)c4=O)cc3F)ccnc2c1 [Compound 222, N-[3-Fluoro-4-[(7-methoxy-1,5-naphthyridin-4-yl)oxy]phenyl]-5-(4-fluorophenyl)-6-(hydroxymethyl)-1-methyl-4-oxopyridine-3-carboxamide]
16 | > 300 nM | > 300 nM | < 100 nM | COc1cnc2c(Oc3ccc(NC(=O)c4cn(C)c(CO)c(-c5ccc(F)cc5)c4=O)cc3)ccnc2c1 [Compound 223, 5-(4-Fluorophenyl)-6-(hydroxymethyl)-N-[4-[(7-methoxy-1,5-naphthyridin-4-yl)oxy]phenyl]-1-methyl-4-oxopyridine-3-carboxamide]
17 | > 300 nM | > 300 nM | < 100 nM | COc1ccc2nccc(Oc3ccc(NC(=O)c4cn(C)c(CO)c(-c5ccc(F)cc5)c4=O)cc3F)c2n1 [Compound 224, N-[3-Fluoro-4-[(6-methoxy-1,5-naphthyridin-4-yl)oxy]phenyl]-5-(4-fluorophenyl)-6-(hydroxymethyl)-1-methyl-4-oxopyridine-3-carboxamide]
18 | < 100 nM | 100 to 300 nM | < 100 nM | COc1cnc2c(Oc3ccc(NC(=O)c4ccc(C)n(-c5ccc(F)cc5C)c4=O)cc3)ccnc2c1 [Compound 226, 1-(4-Fluoro-2-methylphenyl)-N-[4-[(7-methoxy-1,5-naphthyridin-4-yl)oxy]phenyl]-6-methyl-2-oxopyridine-3-carboxamide]
19 | > 300 nM | 100 to 300 nM | < 100 nM | COCCOc1nc2c(Oc3ccc(NC(=O)c4cn(C)c(CO)c(-c5ccc(F)cc5)c4=O)cc3F)ccnc2cc1OC [Compound 228, N-[3-Fluoro-4-[[7-methoxy-6-(2-methoxyethoxy)-1,5-naphthyridin-4-yl]oxy]phenyl]-5-(4-fluorophenyl)-6-(hydroxymethyl)-1-methyl-4-oxopyridine-3-carboxamide]
20 | < 100 nM | < 100 nM | < 100 nM | COc1cnc2c(Oc3ccc(NC(=O)c4c(C)ncc(-c5ccc(F)cc5)c4O)cc3)ccnc2c1 [Compound 236, 5-(4-Fluorophenyl)-4-hydroxy-N-[4-[(7-methoxy-1,5-naphthyridin-4-yl)oxy]phenyl]-2-methylpyridine-3-carboxamide]
21 | > 300 nM | > 300 nM | < 100 nM | COc1cnc2c(Oc3ccc(NC(=O)c4c(C)n(C)cc(-c5ccc(F)cc5)c4=O)cc3F)ccnc2c1 [Compound 239, N-[3-Fluoro-4-[(7-methoxy-1,5-naphthyridin-4-yl)oxy]phenyl]-5-(4-fluorophenyl)-1,2-dimethyl-4-oxopyridine-3-carboxamide]
22 | > 300 nM | > 300 nM | < 100 nM | CCn1cc(-c2ccc(F)cc2)c(=O)c(C(=O)Nc2ccc(Oc3ccnc4cc(OC)cnc34)c(F)c2)c1C [Compound 240, 1-Ethyl-N-[3-fluoro-4-[(7-methoxy-1,5-naphthyridin-4-yl)oxy]phenyl]-5-(4-fluorophenyl)-2-methyl-4-oxopyridine-3-carboxamide]
23 | < 100 nM | 100 to 300 nM | < 100 nM | COc1cnc2c(Oc3ccc(NC(=O)c4n[nH]c(C)c(-c5ccc(F)cc5)c4=O)cc3)ccnc2c1 [Compound 245, 5-(4-Fluorophenyl)-N-[4-[(7-methoxy-1,5-naphthyridin-4-yl)oxy]phenyl]-6-methyl-4-oxo-1H-pyridazine-3-carboxamide]
